The record followed here is patent US5082838A, “Sulfur-containing fused pyrimidine derivatives, their production and use” (Takeda Chemical Industries, Ltd., priority 1989, dated 1992).

Test [1] relates to Feverescence of Rat Due to Lipopolvsaccharide (LPS). As to the kind of experiment: Antipyretic activity in LPS-induced febrile rats. Format: in vivo, Male JcL;SD rats. The conditions noted are these: p.o. On the procedure: Activity of Depressing Feverescence of Rat Due to Lipopolvsaccharide (LPS)
Male JcL;SD rats 7 weeks old (body weight: about 250 g, Clea Japan) were used. Each group had 6 rats. The rats were reared in individual cages from the day before, and then the basal body temperature was measured in the rectums using a digital thermometer (Model D221-6, Takara Kogyo) 3 times at intervals of 1 hour. After the third measurement of the body temperature, the compounds shown in Table 6 were orally administered in a volume of 1 ml per 100 g of body weight. LPS (Escherichia coli 0111 B4, Difco) was administered from their tail veins in an amount of 0.2 ml per 100 g of body weight 1 hour after the administration of the compounds.
The body temperature was measured from 3 to 5 hours after that at intervals of 1 hour. The antipyretic activity of the compounds was evaluated by the difference in body temperature between a control group and a compound-administered group. Statistical analysis was carried out by the Dunnett's test.

The next test relates to NGF. As to the kind of experiment: Promoting effects on synthesis and secretion of NGF in glia cells (C6 glioma), enzyme immuno assay. Format: cell-based. Conditions: 24 hours, read-out: Promoting Activity (%) of NGF synthesis and secretion (relative to control = 100); for activity at 30 µM: 3 × 10^-5 M; for activity at 3 µM: 3 × 10^-6 M. As for the experimental part:
Promoting Effects of the Compounds on Synthesis and Secretion of NGF in Glia Cells
A 48 well-plate was seeded with glia strains cells (C6 glioma) at a rate of 2.5×10^4 cells/well, which was cultivated in Dulbecco's modified eagle's medium (DMEM) containing 10% fetal calf serum. When the cells became confluent (2 to 3 days), each of the following compounds of the present invention was added thereto, and it was cultivated in serum free-DMEM for 24 hours. NGF secreted in the culture supernatant was assayed by enzyme immuno assay. An amount of NGF is shown in a relative value to 100, the value of control (without addition of the compound). The compounds were added in a solution of DMSO, at an amount of 1/100 (V/V) of a medium (V/V). In a control, DMSO alone was added.

The next test concerns Interleukin 1 Production. Nature of the test: Inhibitory effects on interleukin 1 production stimulated by lipopolysaccharide in rat intraperitoneal macrophage (LAF assay). Format: cell-based, Male Sprague-Dawley rats. Conditions: LPS 50 ug/ml; for inhibition at 10 µM: 10^-5 Molar; for inhibition at 1 µM: 10^-6 Molar. As for the experimental part:
Inhibitory Effects on Interleukin 1 Production Simulated by Lipopolysaccharide in the Rat Intraperitoneal Macrophage
Male Sprague-Dawley rats (8 weeks old, body weight: 300 g, Clea Japan) were killed by exsanguination under etherization. 20 ml of a culture solution (RPMI-1640) was intraperitoneally administered to each rat, and the abdominal part thereof was massaged, followed by abdominal section to recover the culture solution. After centrifugation of the solution, the cell pellet obtained was resuspended in 4 ml of the culture solution, superposed on 5 ml of Ficoll-Paque solution (lymphocyte separation medium, Wako Junyaku, Japan), and centrifuged at 450 g at room temperature for 15 minutes. The cells located in the boundary between the Ficoll-Paque solution and the culture solution were collected and washed 3 times with the culture solution. The resulting cells were suspended in the culture solution again, which was used as a macrophage-suspended solution (3×10^5 cells/ml).
Interleukin 1 was produced in the following manner. Macrophage (3×10^5 cells) in a 96-well microtiter plate was preincubated in a CO 2 incubator for 1 hour with each of the compounds shown in Table 5. Then, 50 ug/ml of lipopolysaccharide (Escherichia coli 0111 B4, Difco) was added thereto. After cultivation was further continued for 20 hours, the activity of interleukin 1 in the culture supernatant was measured by an LAF (lymphocyte activating factor) assay. Experiments were carried out in a triplicate manner.
The LAF assay was conducted as the following. Thymocytes (1-1.5×10^6 cells) of C3H/HeJ mice were added to phytohemagglutinin (PHA) P (diluted 1/2000; Difico) and the macrophage culture solution diluted 1/10 or 1/30, and cultivated in a CO2 incubator. After 48 hours, ^3 H-thymidine of 0.5 uCi was added thereto and cultivation was further continued for 24 hours. Then, the amount of ^3 H-thymidine entrapped in the thymocytes was measured. The radioactivity entrapped in the thymocytes was taken as the amount of interleukin-1.
We conducted this process partly modifying the method of R. C. Newton et al. [J. Leukocyte, Biology 39, 299-3111 (1986)].

The subject of another test is endothelin constriction. As to the kind of experiment: Inhibitory effects on endothelin induced contraction in porcine coronary arteries (LAD rings). Type of test: cell-based. Conditions: Sus scrofa, endothelin 3×10^-9 M, read-out: Inhibition (%) of maximum contraction by endothelin; for inhibition at 10 µM: 10^-5 M; for inhibition at 1 µM: 10^-6 M. On the procedure: Inhibitory Effects of the Compounds on […] Induced Contraction in Porcine Coronary Arteries
Ring preparation of porcine left arterior descending coronary arteries (LAD) were suspended in 20 ml baths containing Krebs-Henseleit solutions at 37° C. gassed with 97% O2 -3% CO2. Endothelin (3×10^-9 M) was added to the baths, and after the constriction reached the steady state, the compounds at concentrations of […] and 10^-5 M (Examples 45, 48 and 127) were added to the bath. Then, the relaxation activity was examined. The relaxation activity of the compounds was expressed as % inhibition from the maximum contraction by endothelin.

Turning to `CCCCn1c(=O)c(-c2ccccc2)c2n(c1=O)CCCS2` [Example 23], the “Antipyretic Activity (difference in body temperature vs. control group)” value in test [1] (100 mg/kg) is -0.72 °C.
Regarding `O=c1c(-c2ccccc2)c2n(c(=O)n1Cc1ccccc1)CC=CS2` [Example 129, 7-Benzyl-9-phenyl-4H,6H-pyrimido[6,1-b][1,3]thiazine-6,8(7H)-dione], in the test on NGF, the activity at 30 µM worked out at 117 ± 6% and the activity at 3 µM stood at 197 ± 9%.
As a reminder, the inhibition is the relative decrease from the control value, in per cent. Turning to `CCn1c(=O)c(-c2ccccc2)c2n(c1=O)CCC[S+]2[O-]` (stereo not shown) [Example 43], the “Antipyretic Activity (difference in body temperature vs. control group)” value in test [1] (100 mg/kg) was -0.70 °C. Also, 10 µM produced 52% inhibition with Interleukin 1 Production.
Consider `O=c1c(-c2ccccc2)c2n(c(=O)n1Cc1ccccc1)CCCS2` [Example 36, 7-benzyl-9-phenyl-3,4-dihydro-2H,6H-pyrimido[6,1-b][1,3]thiazine-6,8(7H)-dione], for which, in the test with NGF, the activity at 30 µM worked out at 102 ± 2% and the activity at 3 µM was found to be 240 ± 16%.
Regarding `O=c1c(-c2ccccc2)c2n(c(=O)n1-c1ccccc1)CCS2(=O)=O` [Example 63], the inhibition at 10 µM in the test with Interleukin 1 Production was 98%.
Turning to `CCCCn1c(=O)c(-c2ccccc2)c2n(c1=O)CCC[S+]2[O-]` (stereo not shown) [Example 45], in the test on endothelin constriction, the inhibition at 10 µM stood at 100% and the inhibition at 1 µM was found to be 6.2%. In the test on Interleukin 1 Production, testing at 10 µM gave an inhibition of 75% and 1 µM produced 30% inhibition.
Take `CCCC/C=C/c1c2n(c(=O)n(CCC)c1=O)CCS2` [Example 106]: the “Antipyretic Activity (difference in body temperature vs. control group)” value in test [1] (100 mg/kg) is -0.53 °C.
In turn, `CCn1c(=O)c(-c2ccccc2)c2n(c1=O)CCCS2` [Example 17] gave an inhibition at 10 µM in the test with Interleukin 1 Production of 93%.
For the compound `Cn1c(=O)c(-c2ccccc2)c2n(c1=O)CCCS2(=O)=O` [Example 64], the “Antipyretic Activity (difference in body temperature vs. control group)” value in test [1] (25 mg/kg) was -0.68 °C; in test [1] (50 mg/kg), -0.82 °C; in test [1] (100 mg/kg) it was -1.13 °C. In the test with Interleukin 1 Production, this compound had an inhibition at 10 µM of 100%. In addition, the inhibition at 1 µM in the test on Interleukin 1 Production came out at 60%.
Consider `CCn1c(=O)c(-c2ccccc2)c2n(c1=O)CCCS2(=O)=O` [Example 65], for which the “Antipyretic Activity (difference in body temperature vs. control group)” value in test [1] (100 mg/kg) is -0.95 °C. In the test on Interleukin 1 Production, this compound showed an inhibition at 10 µM of 100% and an inhibition at 1 µM of 40%.
In turn, `Cn1c(=O)c(-c2ccccc2)c2n(c1=O)CCS2(=O)=O` [Example 59] gave an inhibition at 10 µM with Interleukin 1 Production of 89%.
Turning to `CCCn1c(=O)c(-c2ccccc2)c2n(c1=O)CCS2(=O)=O` [Example 61], in the test with NGF, the activity at 30 µM was determined as 109 ± 12% and the activity at 3 µM stood at 177 ± 8%.
For the compound “9-Formyl-7-propyl-3,4-dihydro-2H,6H-pyrimido[6,1-b][1,3]thiazine-6,8(7H)-dione [Example 101]”, the “Antipyretic Activity (difference in body temperature vs. control group)” value in test [1] (100 mg/kg) is -0.87 °C.
As for `CCCn1c(=O)c(-c2ccccc2)c2n(c1=O)CCCS2(=O)=O` [Example 58, 1,1-Dioxo-9-phenyl-7-propyl-3,4-dihydro-2H,6H-pyrimido [6,1-b][1,3]thiazine-6,8(7H)-dione], in the test with NGF, the activity at 30 µM turned out to be 140 ± 2% and the activity at 3 µM worked out at 164 ± 25%.
`CCCCn1c(=O)c(-c2ccccc2)c2n(c1=O)CCS2(=O)=O` [Example 62]: testing at 10 µM in the test on Interleukin 1 Production gave an inhibition of 96%.
On to `CCCn1c(=O)c(-c2ccccc2)c2n(c1=O)CCCS2` [Example 1, 9-Phenyl-7-propyl-3,4-dihydro-2H,6H-pyrimido[6,1-b][1,3] thiazine-6,8(7H)-dione], for which, in the test on NGF, the activity at 30 µM worked out at 117 ± 34% and the activity at 3 µM came out at 168 ± 6%.
As for `CCCn1c(=O)c(-c2ccccc2)c2n(c1=O)CC[S+]2[O-]` (stereo not shown) [Example 48], in the test with endothelin constriction, the inhibition at 10 µM came out at 86.6% and the inhibition at 1 µM amounted to 24.6%.
In the test with Interleukin 1 Production, `CCCCCn1c(=O)c(-c2ccccc2)c2n(c1=O)CCC[S+]2[O-]` (stereo not shown) [Example 50] yielded an inhibition at 10 µM of 98% and an inhibition at 1 µM of 58%.
In the case of `O=c1c(-c2ccccc2)c2n(c(=O)n1-c1ccccc1)CCCS2(=O)=O` [Example 67], in the test with Interleukin 1 Production, the inhibition at 10 µM worked out at 98% and the inhibition at 1 µM is 10%.
